Measured values as given in patent US20110152093A1, “Herbicidal compositions comprising flufenacet” (Bayer CropScience AG, priority 2009, published 2011).

Experiments:
Type in all cases: in vivo
VIOAR (Viola arvensis) = assay: Post-emergence (PO) action against weeds, greenhouse trial, test method 2; conditions: PO application; g of AS/ha: (A) 240, (B) 1200, (C) 140, (A)+(B)+(C) 240 + 1200 + 140
Protocol: (§1) In the standard design of the test, seeds of various broad-leaved weed and weed grass biotypes (origins) were sown in a 8-13 cm diameter pot filled with natural soil of a standard field soil (loamy silt; non-sterile) and covered with a covering soil layer of about 1 cm. The pots were then cultivated in a greenhouse (12-16 h of light, temperature day 20-22° C., night 15-18° C.) until the time of application. The pots were treated on a laboratory track sprayer with spray liquors comprising the compositions according to the invention, mixtures of the prior art or components used individually. Application of the active compounds or active compound combinations formulated as WG, WP, EC or otherwise was carried out at the appropriate growth stages of the plants. The application rate for the spray application was 100-600 l of water/ha. After the treatment, the plants were returned to the greenhouses.
(§2) About 3 weeks after the application, the soil action or/and foliar action was assessed visually according to a scale of 0-100% in comparison to an untreated comparative group: 0%=no noticeable effect compared to the untreated comparative group; 100%=full effect compared to the untreated comparative group.
(§3) (notes: the term “seeds” also includes vegetative propagation forms such as, for example, rhizome pieces; abbreviations used: h light=hours of illumination, g of AS/ha=gram of active substance per hectare, l/ha=liter per hectare, S=sensitive, R=resistant) • 1. Pre-emergence action against weeds: seeds of various broad-leaved weed and weed grass biotypes (origins) were sown in a 8-13 cm diameter pot filled with natural soil of a standard field soil (loamy silt; non-sterile) and covered with a covering soil layer of about 1 cm. The pots were then cultivated in a greenhouse (12-16 h of light, temperature day 20-22° C., night 15-18° C.) until the time of application. The pots were treated at the BBCH stage 00-10 of the seeds/plants on a laboratory track sprayer with spray liquors comprising the compositions according to the invention, mixtures or components used individually, as WG, WP, EC or other formulations. The application rate for the spray application was 100-600 l of water/ha. After the treatment, the plants were returned to the greenhouses and, when required, treated with fertilizer and watered. • 2. Post-emergence action against weeds: seeds of various broad-leaved weed and weed grass biotypes (origins) were sown in a 8-13 cm diameter pot filled with natural soil of a standard field soil (loamy silt; non-sterile) and covered with a covering soil layer of about 1 cm. The pots were then cultivated in a greenhouse (12-16 h of light, temperature day 20-22° C., night 15-18° C.) until the time of application. The pots were treated at various BBCH stages between 11-25 of the seeds/plants, i.e. generally between two to three weeks after the start of the cultivation, on a laboratory track sprayer with spray liquors comprising the compositions according to the invention, mixtures or components used individually, as WG, WP, EC or other formulations. The application rate for the spray application was 100-600 l of water/ha. After the treatment, the plants were returned to the greenhouses and, when required, treated with fertilizer and watered. • 3. […]

[1] = system: MATCH (Matricaria chamomilla); assay: Action under various soil conditions (soil types), test method 7; conditions: g of AS/ha: (A) 90, (B) 1200, (C) 140, (A)+(B)+(C) 90 + 1200 + 140
Protocol: as §1, §2
(§4) (notes: the term “seeds” also includes vegetative propagation forms such as, for example, rhizome pieces; abbreviations used: h light=hours of illumination, g of AS/ha=gram of active substance per hectare, l/ha=liter per hectare, S=sensitive, R=resistant) • 1. Pre-emergence action against weeds: seeds of various broad-leaved weed and weed grass biotypes (origins) were sown in a 8-13 cm diameter pot filled with natural soil of a standard field soil (loamy silt; non-sterile) and covered with a covering soil layer of about 1 cm. The pots were then cultivated in a greenhouse (12-16 h of light, temperature day 20-22° C., night 15-18° C.) until the time of application. The pots were treated at the BBCH stage 00-10 of the seeds/plants on a laboratory track sprayer with spray liquors comprising the compositions according to the invention, mixtures or components used individually, as WG, WP, EC or other formulations. The application rate for the spray application was 100-600 l of water/ha. After the treatment, the plants were returned to the greenhouses and, when required, treated with fertilizer and watered. • 2. Post-emergence action against weeds: seeds of various broad-leaved weed and weed grass biotypes (origins) were sown in a 8-13 cm diameter pot filled with natural soil of a standard field soil (loamy silt; non-sterile) and covered with a covering soil layer of about 1 cm. The pots were then cultivated in a greenhouse (12-16 h of light, temperature day 20-22° C., night 15-18° C.) until the time of application. The pots were treated at various BBCH stages between 11-25 of the seeds/plants, i.e. generally between two to three weeks after the start of the cultivation, on a laboratory track sprayer with spray liquors comprising the compositions according to the invention, mixtures or components used individually, as WG, WP, EC or other formulations. The application rate for the spray application was 100-600 l of water/ha. After the treatment, the plants were returned to the greenhouses and, when required, treated with fertilizer and watered. • 3. Selective pre-emergence action: seeds of various crop species (origins) were sown in a 8-13 cm diameter pot filled with natural soil of a standard field soil (loamy silt; non-sterile) and covered with a covering soil layer of about 1 cm. The pots were then cultivated in a greenhouse (12-16 h of light, temperature day 20-22° C., night 15-18° C.) until the time of application. The pots were treated at the BBCH stage 00-10 of the seeds/plants on a laboratory track sprayer with spray liquors comprising the compositions according to the invention, mixtures or components used individually, as WG, WP, EC or other formulations. The application rate for the spray application was 100-600 l of water/ha. […]

AVEFA (Avena fatua) = assay: PE action at different soil pH values, test method 10; conditions: PE application, g of AS/ha: (A) 90, (B) 1200, (C) 140, (A)+(B)+(C) 90 + 1200 + 140
Protocol: as §1, §2

LOLPE (Lolium perenne) [2] = assay: PE action under various irrigation conditions, test method 6; conditions: PE application, g of AS/ha: (A) 90, (B) 1200, (C) 140, (A)+(B)+(C) 90 + 1200 + 140
Protocol: as §1, §2, §4

[3] = system: MATCH (Matricaria chamomilla); assay: as above; conditions: PE application; irrigation from below; g of AS/ha: (A) 90, (B) 1200, (C) 140, (A)+(B)+(C) 90 + 1200 + 140
Protocol: as §1, §2, §4

[4] = system: HORVS (Hordeum vulgare, summer barley); assay: Selective post-emergence action (crop compatibility), greenhouse trial, test method 4; conditions: PO application; g of AS/ha: (A) 240, (B) 1200, (C) 140, (A)+(B)+(C) 240 + 1200 + 140
Protocol: as §1, §2
(notes: the term “seeds” also includes vegetative propagation forms such as, for example, rhizome pieces; abbreviations used: h light=hours of illumination, g of AS/ha=gram of active substance per hectare, l/ha=liter per hectare, S=sensitive, R=resistant) • 1. Pre-emergence action against weeds: seeds of various broad-leaved weed and weed grass biotypes (origins) were sown in a 8-13 cm diameter pot filled with natural soil of a standard field soil (loamy silt; non-sterile) and covered with a covering soil layer of about 1 cm. The pots were then cultivated in a greenhouse (12-16 h of light, temperature day 20-22° C., night 15-18° C.) until the time of application. […]

[5] = system: HORVS (Hordeum vulgare, summer barley); assay: Action under various soil conditions (soil types), test method 7, crop compatibility; conditions: IU/EC73 soil versus IU soil; g of AS/ha: (A) 90, (B) 1200, (C) 140, (A)+(B)+(C) 90 + 1200 + 140
Protocol: as §1, §2, §3

LOLPE (Lolium perenne) [6] = assay: Pre-sowing application action against weeds (7 days prior to sowing), test method 5; conditions: application 7 days prior to sowing; g of AS/ha: (A) 90, (B) 1200, (C) 140, (A)+(B)+(C) 90 + 1200 + 140
Protocol: as §1, §2
(notes: the term “seeds” also includes vegetative propagation forms such as, for example, rhizome pieces; abbreviations used: h light=hours of illumination, g of AS/ha=gram of active substance per hectare, l/ha=liter per hectare, S=sensitive, R=resistant) • 1. Pre-emergence action against weeds: seeds of various broad-leaved weed and weed grass biotypes (origins) were sown in a 8-13 cm diameter pot filled with natural soil of a standard field soil (loamy silt; non-sterile) and covered with a covering soil layer of about 1 cm. The pots were then cultivated in a greenhouse (12-16 h of light, temperature day 20-22° C., night 15-18° C.) until the time of application. The pots were treated at the BBCH stage 00-10 of the seeds/plants on a laboratory track sprayer with spray liquors comprising the compositions according to the invention, mixtures or components used individually, as WG, WP, EC or other formulations. The application rate for the spray application was 100-600 l of water/ha. After the treatment, the plants were returned to the greenhouses and, when required, treated with fertilizer and watered. • 2. Post-emergence action against weeds: seeds of various broad-leaved weed and weed grass biotypes (origins) were sown in a 8-13 cm diameter pot filled with natural soil of a standard field soil (loamy silt; non-sterile) and covered with a covering soil layer of about 1 cm. The pots were then cultivated in a greenhouse (12-16 h of light, temperature day 20-22° C., night 15-18° C.) until the time of application. […]

[7] = system: ALOMY resistant (Alopecurus myosuroides); assay: PE action on resistant weed biotypes, test method 8; conditions: PE application; g of AS/ha: (A) 90, (B) 1200, (C) 140, (A)+(B)+(C) 90 + 1200 + 140, iodosulfuron 10
Protocol: as §1, §2, §4

[8] = system: ALOMY sensitive (Alopecurus myosuroides); assay: as above; conditions: PE application; g of AS/ha: (A) 90, (B) 1200, (C) 140, (A)+(B)+(C) 90 + 1200 + 140, iodosulfuron 10
Protocol: as §1, §2, §4

[9] = system: LOLSS sensitive (Lolium species); assay: as above; conditions: PE application; g of AS/ha: (A) 90, (B) 1200, (C) 140, (A)+(B)+(C) 90 + 1200 + 140, iodosulfuron 10
Protocol: as §1, §2, §4

| SMILES | activity VIOAR (visual, scale 0-100%) (VIOAR (Viola arvensis)) | activity MATCH IU soil ([1]; IU soil) | Difference of the soil types, MATCH ([1]; IU/EC73 soil versus IU soil) | activity MATCH IU/EC73 soil ([1]; IU/EC73 soil) | activity AVEFA pH 7.4 (AVEFA (Avena fatua); soil pH 7.4) | activity AVEFA pH 8.4 (AVEFA (Avena fatua); soil pH 8.4) | activity LOLPE (LOLPE (Lolium perenne) [2]; irrigation from above) | activity LOLPE (LOLPE (Lolium perenne) [2]; irrigation from below) | activity MATCH [3] | activity HORVS (crop plant; visual, scale 0-100%) [4] | Difference of the soil types, HORVS [5] | activity LOLPE (LOLPE (Lolium perenne) [6]) | activity ALOMY resistant [7] | activity ALOMY sensitive [8] | activity LOLSS sensitive [9] |
| --- | --- | --- | --- | --- | --- | --- | --- | --- | --- | --- | --- | --- | --- | --- | --- |
| CC(C)N(C(=O)COc1nnc(C(F)(F)F)s1)c1ccc(F)cc1 [(A) flufenacet, N-(4-fluorophenyl)-N-(1-methylethyl)-2-[[5-(trifluoromethyl)-1,3,4-thiadiazol-2-yl]oxy]acetamide] | 50% | 28% | −23% | 5% | 80% | 55% | 82% | 75% | 15% | 60% | −10% | 93% | 68% | 80% | 5% |
| COc1nc(C)nc(NC(=O)NS(=O)(=O)c2cc(I)ccc2C(=O)O)n1 [(C)^1 iodosulfuron, iodosulfuron] |  |  |  |  |  |  |  |  |  |  |  |  | 40% | 90% |  |
